From US5840940A, “Linoleoylamide based ceramide derivative and its use in cosmetic preparations for the treatment of dry skin” (Gist-Brocades B.V., priority 1994, dated 1998)
Entries after “also recorded” stand apart in the source; their conditions may differ.

Experiments:
SDS-damaged skin [1] = assay: Skin humidity of SDS-damaged skin (corneometer CM 820 PC); format: in vivo, female volunteers (human); conditions: creams with 0.2% and 0.5% ceramide IIIA, 14 days, compared to placebo
Experimental: (§1) The corneometer CM 820 PC (Courage and Khazaka, Cologne, Germany) registers the electrical capacitance of the skin surface, which is a measure of the degree of moisture on the skin's surface. The capacitance is expressed digitally in arbitrary units (a.u.). Three measurements were performed on each test area and the mean was used to define hydration state of the stratum corneum.
(§2) The corneometer comprises a console and its sensor. The sensor is connected to the console by a special plug and coiled cable. The measurement is indicated on the 40×18 mm display screen on the console as a three-place number. The display also fulfils other information functions.
The sensor is rectangular in shape. Its special glass coated active front surface can be moved axially, and has a stroke of at least 3 mm. The measuring principle demands that the sensor surface be placed flat on the test object at a constant pressure. In order to ensure this as reproducibly as possible, the front surface of the measuring head has been designed to be very small (7×7 mm). […]
(§3) The corneometer is completely automatic in operation. In order to carry out a measurement, the measuring head is pressed against the area of skin to be measured. […]
Measurements were evaluated during the treatment period on day 3, 7 and 14 one hour after the last daily application. […]

SDS-damaged skin [2] = assay: Trans-epidermal water loss (TEWL) / barrier recovery of SDS-damaged skin (Tewameter); format: in vivo, female volunteers (human)
Experimental: Measurements of trans-epidermal water loss (TEWL) were performed with the Tewameter (Courage & Khazaka, Cologne, Germany). The Tewameter is a device for measurement of water evaporation on skin surfaces based on the diffusion principle discovered by A. Fick in 1885.
Five female volunteers at the age of 22-43 years with healthy skin were included in the test.
Measurements were carried out at a temperature of 22°±1° C. and a relative humidity of 60±10%. Subjects were accustomed to ambient conditions for 20 min prior to any measurement. The test was carried out on the volar forearms. The skin of the forearms was treated with a 5% aqueous solution of sodium lauryl sulphate (SDS) and an occlusive dressing applied. The dressing was removed 2 h later, and the regions gently washed with water and air-dried. After 30 min the measurements were done. Then the three test products were applied, one area remained untreated. The dose of application was about 2 mg/cm^2. In the following 14 days a home application in the morning and evening took place.
Measurements were evaluated during the treatment period on day 3, 7 and 14 one hour after the last daily application. Use of other cosmetic products was restricted on the test areas throughout the whole study.

[3] = Solubility in emollients (visual inspection, maximum concentration before the solution turned cloudy); format: physicochemical
Experimental: Increasing amounts of the compound were added to the solvent and stirred under nitrogen for 30 minutes at 45° C. After cooling to room temperature (22°±2° C.) the solutions were kept in the dark. After 1, 24 and 48 hours the solutions were visually inspected. The maximum concentration was determined before the solution turned cloudy, indicating the presence of insoluble crystals.

healthy skin = assay: Skin humidity of healthy skin (corneometer CM 820 PC), long-term effects of ceramide IIIA; format: in vivo, female volunteers (human); conditions: creams with 0.2% and 0.5% ceramide IIIA, twice daily, 28 days, compared to placebo
Experimental: as §1, §2
The sensor is rectangular in shape. Its special glass coated active front surface can be moved axially, and has a stroke of at least 3 mm. […]
as §3
Measurements were carried out at a temperature of 22°±1° C. and a relative humidity of 60±10%. […] Initially untreated skin was measured in all three areas to find baseline values. […]
Measurements were evaluated during the treatment period on day 7, 14 and 28 two hours after the last daily application. The application was ceased on day 28 and further measurements were evaluated on day 30 and 32. […]

[4] = isocetyl alcohol (Eutanol G16) and/or isostearic acid (Emersol)
[5] = isocetyl alcohol (Eutanol G16), stirred 45° C., room temperature (22°±2° C.), 1, 24 and 48 hours

Row | Solubility [3, 4] | Solubility [3, 5] [% w/v] | SMILES | Moisturizing effect (skin humidity) (SDS-damaged skin [1]) | Trans-epidermal water loss (SDS-damaged skin [2]; SDS-damaged skin, 14 days treatment, compared to placebo) | Restoration of the barrier layer (SDS-damaged skin [2]; surfactant (SDS)-pretreated skin, compared to placebo product) | Solubility, in words ([3]; emollient solvents, compared with saturated analogue and ceramide 1) | Moisturizing effect (skin humidity) (healthy skin)
1 | ≥ 1 % (w/v) | 5 | CCCCC/C=C\C/C=C\CCCCCCCC(=O)N[C@@H](CO)[C@H](O)[C@H](O)CCCCCCCCCCCCCC [Ceramide IIIA, N-linoleoylphytosphingosine] | increase of skin humidity of damaged skin compared to placebo | a reduction of trans-epidermal water loss | high capacity for restoration of the impaired lipid barrier of the skin; also recorded: quicker recovery of the barrier layer of SDS-treated skin than the placebo product | solubilizes much better than its saturated analogue and than ceramide 1 | clear moisture-retaining effect on healthy skin; also recorded: clear moisturizing effect compared to placebo
2 | less than 0.2 % (w/v) | 0.16 | CCCCCCCCCCCCCCCCCC(=O)N[C@@H](CO)[C@H](O)[C@H](O)CCCCCCCCCCCCCC [Ceramide III, N-stearoylphytosphingosine, reference compound] |  |  |  |  | 
